Test results from patent US9034794B2, “Method for post-emergence crabgrass control” (FMC Corporation, priority 2007, dated 2015).

System: Crabgrass (Digitaria sp.)
Test: Post-emergence control of crabgrass in greenhouse pots, application at the 1-2 leaf growth stage
Assay type: in vivo
Method: The compositions of the present invention were tested for herbicidal efficacy in the following manner:
For post-emergence testing, three disposable 3 inch square pots for each rate of application of each herbicide solution were filled with a soil, comprised of peat moss, vermiculite, bark ash, pine bark, limestone and a wetting agent (Metro Mix® 360 artificial soil, Scotts Company, Marysville, Ohio), to which about 20 to 30 crabgrass seeds (Digitaria sp.) seeds were planted. The pots were placed in a greenhouse and watered daily, thus allowing the seeds to germinate and the foliage to develop for 11 days, until the crabgrass was at the 1-2 leaf growth stage.
Pots designated for treatment were placed on a conveyor belt and the conveyor belt fed under a spray nozzle mounted about ten inches above the postemergent foliage. The spray of herbicidal solution was commenced and once stabilized; the pots were passed under the spray at a speed to receive a coverage equivalent of 30 gallons per acre. The application rates are those shown in Table 1 below for the individual herbicidal solutions and the herbicide compositions of the present invention. The post-emergence pots were immediately placed in the green-house and not watered for 24 hours after treatment. Thereafter they were regularly watered at ground level. The control of crabgrass was evaluated in each experimental test from 1 to 22 days after treatment (DAT). The results, shown as an average of the replications, were compared with results observed in untreated control pots in the same tests. All test treatments contained 0.25% (by volume) of a non-ionic surfactant.
Percent control was determined by comparing the treated plants to the untreated control using the following rating system:
The results, shown as an average of the replications, were compared with results observed in untreated control plots in the same trials.

| SMILES | Average % control (0.25 lb AI/Acre, 1 DAT) | Average % control (0.25 lb AI/Acre, 3 DAT) | Average % control (0.25 lb AI/Acre, 7 DAT) | Average % control (0.25 lb AI/Acre, 14 DAT) | Average % control (0.25 lb AI/Acre, 22 DAT) | Average % control (0.375 lb AI/Acre, 1 DAT) | Average % control (0.375 lb AI/Acre, 3 DAT) | Average % control (0.375 lb AI/Acre, 7 DAT) | Average % control (0.375 lb AI/Acre, 14 DAT) | Average % control (0.375 lb AI/Acre, 22 DAT) | Average % control (0.75 lb AI/Acre, 1 DAT) | Average % control (0.75 lb AI/Acre, 3 DAT) | Average % control (0.75 lb AI/Acre, 7 DAT) | Average % control (0.75 lb AI/Acre, 14 DAT) | Average % control (0.75 lb AI/Acre, 22 DAT) |
| --- | --- | --- | --- | --- | --- | --- | --- | --- | --- | --- | --- | --- | --- | --- | --- |
| Cc1nn(-c2cc(NS(C)(=O)=O)c(Cl)cc2Cl)c(=O)n1C(F)F [A, N-[2,4-dichloro-5-[4-(difluoromethyl)-4,5-dihydro-3-methyl-5-oxo-1H-1,2,4-triazol-1-yl]phenyl]methanesulfonamide] | 20% | 20% | 5% | 0% | 0% | 10% | 25% | 10% | 0% | 0% | – | – | – | – | – |
| CCCN(CCC)c1c([N+](=O)[O-])cc(C(F)(F)F)c(N)c1[N+](=O)[O-] [B, 2,4-dinitro-N^3,N^3-dipropyl-6-(trifluoromethyl)-1,3-benzenediamine] | – | – | – | – | – | – | – | – | – | – | 0% | 0% | 0% | 0% | 0% |
